Data reported in the supplement of paper PMC10307832.

Columns and labels:
Assay in all cases: relative viability (nuclei count vs DMSO), 5 days (fraction); higher = more cells survive
NCI-H2405 = test system: NCI-H2405
Outline: (§1)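 Lung cancer cell lines were seeded in 1536-well plates and dosed by pin tool the next day, with either a single drug or a fixed anchor-drug dose combined with five library-drug doses (not always all listed) spaced in √10 steps. Five days later, one step fixed the cells and stained their nuclei (final 0.05% Triton X-100, 1% formaldehyde, 1 ug/ml Hoechst), and nuclei were counted on 4× images. Relative viability is the nuclei count in treated wells divided by the count in vehicle wells, and each value is the median of duplicate plates.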

NCI-H1650 = test system: NCI-H1650
Outline: as §1

NCI-H520 = test system: NCI-H520
Outline: as §1

H3255 = test system: H3255
Outline: as §1

NCI-H1651 = test system: NCI-H1651
Outline: as §1

RERF-LC-KJ = test system: RERF-LC-KJ
Outline: as §1

NCI-H1355 = test system: NCI-H1355
Outline: as §1

LK-2 = test system: LK-2
Outline: as §1

PC-3 [JPC-3] = test system: PC-3 [JPC-3]
Outline: as §1

NCI-H661 = test system: NCI-H661
Outline: as §1

NCI-H1734 = test system: NCI-H1734
Outline: as §1

PC-14 = test system: PC-14
Outline: as §1

COR-L23 = test system: COR-L23
Outline: as §1

HCC-827 = test system: HCC-827
Outline: as §1

EKVX = test system: EKVX
Outline: as §1

NCI-H1437 = test system: NCI-H1437
Outline: as §1

SW 1573 = test system: SW 1573
Outline: as §1

NCI-H2228 = test system: NCI-H2228
Outline: as §1

SK-MES-1 = test system: SK-MES-1
Outline: as §1

HCC-15 = test system: HCC-15
Outline: as §1

NCI-H322M = test system: NCI-H322M
Outline: as §1

NCI-H1563 = test system: NCI-H1563
Outline: as §1

CAL-12T = test system: CAL-12T
Outline: as §1

Clc1ccc(Nc2nnc(Cc3ccncc3)c3ccccc23)cc1 [Vatalanib] + Nc1nc2[nH]cc(CCc3ccc(C(=O)N[C@@H](CCC(=O)O)C(=O)O)cc3)c2c(=O)[nH]1 [Pemetrexed] (partner 0.2 µM)
relative viability (NCI-H2405; first compound 0.04 µM): 1.04 | relative viability (NCI-H2405; first compound 0.1265 µM): 1.04 | relative viability (NCI-H2405; first compound 0.4 µM): 0.981 | relative viability (NCI-H2405; first compound 4 µM): 1.01 | relative viability (NCI-H1650; first compound 0.04 µM): 0.359 | relative viability (NCI-H1650; first compound 0.1265 µM): 0.305 | relative viability (NCI-H1650; first compound 0.4 µM): 0.323 | relative viability (NCI-H1650; first compound 1.265 µM): 0.388 | relative viability (NCI-H1650; first compound 4 µM): 0.388 | relative viability (NCI-H520; first compound 0.04 µM): 0.676 | relative viability (NCI-H520; first compound 0.1265 µM): 0.654 | relative viability (NCI-H520; first compound 0.4 µM): 0.751 | relative viability (NCI-H520; first compound 1.265 µM): 0.625 | relative viability (NCI-H520; first compound 4 µM): 0.62 | relative viability (H3255; first compound 0.04 µM): 0.543 | relative viability (H3255; first compound 0.1265 µM): 0.536 | relative viability (H3255; first compound 0.4 µM): 0.529 | relative viability (H3255; first compound 1.265 µM): 0.512 | relative viability (H3255; first compound 4 µM): 0.523 | relative viability (NCI-H1651; first compound 0.04 µM): 0.512 | relative viability (NCI-H1651; first compound 0.1265 µM): 0.558 | relative viability (NCI-H1651; first compound 0.4 µM): 0.496 | relative viability (NCI-H1651; first compound 1.265 µM): 0.543 | relative viability (NCI-H1651; first compound 4 µM): 0.526 | relative viability (RERF-LC-KJ; first compound 0.04 µM): 0.489 | relative viability (RERF-LC-KJ; first compound 0.1265 µM): 0.476 | relative viability (RERF-LC-KJ; first compound 0.4 µM): 0.484 | relative viability (RERF-LC-KJ; first compound 1.265 µM): 0.502 | relative viability (RERF-LC-KJ; first compound 4 µM): 0.458 | relative viability (NCI-H1355; first compound 0.04 µM): 0.965 | relative viability (NCI-H1355; first compound 0.1265 µM): 1.01 | relative viability (NCI-H1355; first compound 0.4 µM): 1.08 | relative viability (NCI-H1355; first compound 1.265 µM): 0.979 | relative viability (NCI-H1355; first compound 4 µM): 0.936 | relative viability (LK-2; first compound 0.04 µM): 0.241 | relative viability (LK-2; first compound 0.1265 µM): 0.252 | relative viability (LK-2; first compound 0.4 µM): 0.319 | relative viability (LK-2; first compound 1.265 µM): 0.235 | relative viability (LK-2; first compound 4 µM): 0.207 | relative viability (PC-3 [JPC-3]; first compound 0.04 µM): 1.02 | relative viability (PC-3 [JPC-3]; first compound 0.1265 µM): 0.943 | relative viability (PC-3 [JPC-3]; first compound 0.4 µM): 0.803 | relative viability (PC-3 [JPC-3]; first compound 1.265 µM): 0.456 | relative viability (PC-3 [JPC-3]; first compound 4 µM): 0.964 | relative viability (NCI-H661; first compound 0.04 µM): 0.868 | relative viability (NCI-H661; first compound 0.1265 µM): 0.906 | relative viability (NCI-H661; first compound 0.4 µM): 0.996 | relative viability (NCI-H661; first compound 1.265 µM): 0.905 | relative viability (NCI-H661; first compound 4 µM): 0.936 | relative viability (NCI-H1734; first compound 0.04 µM): 0.401 | relative viability (NCI-H1734; first compound 0.1265 µM): 0.42 | relative viability (NCI-H1734; first compound 0.4 µM): 0.414 | relative viability (NCI-H1734; first compound 1.265 µM): 0.427 | relative viability (NCI-H1734; first compound 4 µM): 0.379 | relative viability (PC-14; first compound 0.04 µM): 0.135 | relative viability (PC-14; first compound 0.1265 µM): 0.125 | relative viability (PC-14; first compound 0.4 µM): 0.125 | relative viability (PC-14; first compound 1.265 µM): 0.129 | relative viability (PC-14; first compound 4 µM): 0.129 | relative viability (COR-L23; first compound 0.04 µM): 0.204 | relative viability (COR-L23; first compound 0.1265 µM): 0.194 | relative viability (COR-L23; first compound 0.4 µM): 0.212 | relative viability (COR-L23; first compound 1.265 µM): 0.201 | relative viability (COR-L23; first compound 4 µM): 0.208 | relative viability (HCC-827; first compound 0.04 µM): 0.241 | relative viability (HCC-827; first compound 0.1265 µM): 0.232 | relative viability (HCC-827; first compound 1.265 µM): 0.263 | relative viability (HCC-827; first compound 4 µM): 0.231 | relative viability (EKVX; first compound 0.04 µM): 0.416 | relative viability (EKVX; first compound 0.1265 µM): 0.425 | relative viability (EKVX; first compound 0.4 µM): 0.393 | relative viability (EKVX; first compound 1.265 µM): 0.339 | relative viability (EKVX; first compound 4 µM): 0.365 | relative viability (NCI-H1437; first compound 0.04 µM): 0.33 | relative viability (NCI-H1437; first compound 0.1265 µM): 0.342 | relative viability (NCI-H1437; first compound 0.4 µM): 0.328 | relative viability (NCI-H1437; first compound 1.265 µM): 0.26 | relative viability (NCI-H1437; first compound 4 µM): 0.275 | relative viability (SW 1573; first compound 0.1265 µM): 0.72 | relative viability (SW 1573; first compound 0.4 µM): 0.975 | relative viability (SW 1573; first compound 1.265 µM): 0.771 | relative viability (SW 1573; first compound 4 µM): 0.794 | relative viability (NCI-H2228; first compound 0.04 µM): 0.352 | relative viability (NCI-H2228; first compound 0.1265 µM): 0.304 | relative viability (NCI-H2228; first compound 0.4 µM): 0.314 | relative viability (NCI-H2228; first compound 1.265 µM): 0.376 | relative viability (NCI-H2228; first compound 4 µM): 0.374 | relative viability (SK-MES-1; first compound 0.04 µM): 0.905 | relative viability (SK-MES-1; first compound 0.1265 µM): 0.925 | relative viability (SK-MES-1; first compound 0.4 µM): 1.05 | relative viability (SK-MES-1; first compound 1.265 µM): 0.912 | relative viability (SK-MES-1; first compound 4 µM): 0.787 | relative viability (HCC-15; first compound 0.04 µM): 0.234 | relative viability (HCC-15; first compound 0.1265 µM): 0.218 | relative viability (HCC-15; first compound 0.4 µM): 0.225 | relative viability (HCC-15; first compound 1.265 µM): 0.235 | relative viability (HCC-15; first compound 4 µM): 0.219 | relative viability (NCI-H322M; first compound 0.04 µM): 0.609 | relative viability (NCI-H322M; first compound 0.1265 µM): 0.656 | relative viability (NCI-H322M; first compound 0.4 µM): 0.678 | relative viability (NCI-H322M; first compound 4 µM): 0.572 | relative viability (NCI-H1563; first compound 0.04 µM): 0.804 | relative viability (NCI-H1563; first compound 0.1265 µM): 0.772 | relative viability (NCI-H1563; first compound 0.4 µM): 0.857 | relative viability (NCI-H1563; first compound 1.265 µM): 0.758 | relative viability (NCI-H1563; first compound 4 µM): 0.77 | relative viability (CAL-12T; first compound 0.04 µM): 1.15 | relative viability (CAL-12T; first compound 0.1265 µM): 1.15 | relative viability (CAL-12T; first compound 0.4 µM): 1.19 | relative viability (CAL-12T; first compound 1.265 µM): 1.12 | relative viability (CAL-12T; first compound 4 µM): 1.22
